The source of these data is US20170042929A9, “Methods of Treating Neurological Diseases” (priority 2012, published 2017).

In assay [1] the test system is hippocampal area CA1 of HET (SCN1A mSMEI) tissue. The assay can be described thus: Evoked fEPSP extracellular recordings in hippocampal slices, Schaeffer collateral stimulation (single pulse and 40 Hz trains). The settings on record: for population spike evoked by very low stimulation intensity: HET CA1; for fEPSP amplitude / synaptic excitability in HET tissue: HET hippocampus, ten pulse 40 Hz stimulation. It counts as cell-based, mouse. The method, then:
(§1) Mice (P16-22) were anesthetized with isofluorane, decapitated, and the brains immediately removed. Transverse hippocampal sections (350 μm thickness) were cut in cold dissection solution (in mM: 2.6 KCl, 1.23 NaH2PO4, 24 NaHCO3, 0.1 CaCl2, 2 MgCl2, 205 sucrose, and 10 glucose) using a vibratome and were incubated for half an hour in normal artificial cerebrospinal fluid (ACSF; pH 7.3, 30° C.) containing (in mM) 130 NaCl, 1.2 MgSO4, 3.5 KCl, 1.2 CaCl2, 10 glucose, 2.5 NaH2PO4, 24 NaHCO3 aerated with 95% O2-5% CO2. After the incubation, slices were stained with Di-4ANNEPS (final dye concentration is 0.05 mg/ml) and left to recover for an additional hour at 30° C. (23). The slices were transferred to a submersion recording chamber (Warner Instr.) and continuously perfused (2 ml/min, at 30° C.) with the oxygenated ACSF.
(§2) To characterize excitatory neural circuit activity, stimulating electrodes (concentric bipolar metal electrodes, 200 μm in diameter (FHC)) were placed on the Shaffer collaterals. fEPSP recordings were performed in hippocampal slices concurrently with the VSDI (FIGS. 1A-1E). Extracellular recording electrodes ([…], 0.9% saline) were placed in the CA1 radiatum layer. To monitor Di-4ANNEPS signals, the slices were illuminated either with Halogen (150 W; excitation 522-550 nm; emission—580 nm; dichroic—565 nm).
Input-output (I-O) characteristics of fEPSPs were calculated using the same intensities of stimulation and incrementally (0.05 mA) raising them until the maximal responses or population spikes were obtained. 1-0 calculations were performed in stained and unstained slices to rule out a possible modulation of Di-4ANEPPS on GABA receptors (24). The responses from stained and unstained slices were not statistically different and were pooled together for the final analysis.
(§3) To elicit short-term synaptic plasticity, Schaeffer collaterals were stimulated at 40 Hz frequency using 10 pulse (0.2 msec) trains. 40 Hz falls within the gamma frequency range and stimulation was repeated every 15 seconds with stimulus amplitude was set at the half of maximal fEPSP amplitude. fEPSP and VSDI optical data trials were synchronized.
To modulate hippocampal hyperexcitability A1R agonist N6-cyclopentyladenosine (CPA) was used. N6-cyclopentyladenosine dissolved in DMSO was added to the bath ACSF solution. N6-cyclopentyladenosine took effect within 2 minutes of its application. 10 and 1 μM and 500, 100, 50, and 10 nM concentrations of CPA were tested. Since N6-cyclopentyladenosine acts through G-protein linked mechanisms, the washout of N6-cyclopentyladenosine was not possible in the current experiments. […] A1R […] DPCPX concentration was 200 nM. All drugs and dye were obtained from Sigma-Aldrich.

For another assay, the system named is SMEI seizures. The settings on record: previously tested; cited from earlier work.
The test system of assay [2] is hippocampal CA1 circuit of HET (SCN1A mSMEI) tissue. The experiment in a line: Voltage-sensitive dye imaging (VSDI) of evoked neural activity propagation, FWHM. Type of assay: cell-based, mouse. The settings on record: for abnormally wide circuit excitation, neural activity map (dF/Fmax) / spatial extent of neural signal propagation: 50 nM CPA; for abnormally wide circuit excitation, neural activity map (dF/Fmax): HET animal P19; for spatial extent of neural signal propagation: HET tissue. The method, then:
as §1
A combination of in vitro electrophysiology (extracellular field potential recording and whole-cell patch clamp recordings) and fast voltage-sensitive dye imaging (VSDI) was used. All electrical recordings were performed using MCC 700 amplifiers (Axon Instruments). Electrical data was acquired at 4 KHz, digitized at 10 KHz using a Digidata DAC board and pClamp software. Optical data were recorded at 250 Hz with MiCam 02 (192×126 pixels, SciMedia USA).
as §2, §3
Optical and electrical data were analyzed using Brain Vision and pClamp softwares. To increase signal to noise ratio, data analysis in individual slices and during pharmacological manipulations was performed on the averages of fifteen files (electrical and optical). Standard electrophysiological analysis techniques were used to analyze fEPSP, EPSC, and IPSC characteristics. For optical analysis, 1060 msec of data were fitted with an approximately Gaussian curve (25) and full width at half maximal (FWHM) values over the distance of 950 micrometers from the stimulating electrode toward subicullum were calculated using BrainVision (SciMedia). FWHM here quantifies distance of neuronal signal propagation (or decay). FWHM calculations along the orthodromic neural activity propagation trajectory included 15 frames before and 194 frames after the 40 Hz train stimulation, and was spanning over the evoked signal as shown in FIGS. 4A-4D. All results are reported as grouped averages with standard error of the mean. Results from WT and HET, or treated versus untreated groups were compared using unpaired and paired t-tests, respectfully. A p<0.05 was regarded as statistically significant value.

For assay [3], the system named is isolated mouse hippocampus. The assay can be described thus: Febrile seizure-like events (FSLE) in hyperthermia, extracellular recording in isolated hippocampus. Type of assay: cell-based. The settings on record: CPA added immediately after the first FSLE, P18 isolated hippocampus. The method, then:
FIG. 9A: unfiltered extracellular recording traces (DC mode) of the typical repeated FSLEs in P18 isolated mouse hippocampus. […] Immediately after that CPA was added.
Febrile seizure-like events (FSLE) emerge and terminate as sub-threshold bursts under conditions of hyperthermia at a temperature of about 39° C. in (FIGS. 6A-6C) while spontaneous inhibitory postsynaptic currents (IPSCs) evident at 32° C. (FIG. 6D) gradually diminish as the temperature increases (FIG. 6E). In hippocampal slices FSLEs emerged on the average at 38.5° C. in tissue from HET mice and at 40.5° C. in tissue from WT mice (FIGS. 7A-7B) where the FSLE durations was almost twice as long in HET tissue (FIG. 7C).

Assay [4] deals with SMEI mice (SCN1A HET). The assay can be described thus: Acute CPA treatment, hyperthermia-induced seizures in vivo. Details: species or system mouse. The method, then:
(§4) The model of SMEI used in these studies is caused by a knock-in nonsense substitution (CgG to TgA in exon 21) made within a loop between segments 5 and 6. Transgenic mice were provided by Drs. K. Yamakawa and I. Ogiwara (RIKEN, Japan (14)). All of the experiments on the mice (C57BL/6/129) involved in this project were performed in accordance with animal protocols approved by the Institutional Animal Care and Use Committee of the University of Houston. Heterozygous (HET) and wild-type (WT) mice were used.

Assay [5] has as its system SMEI mice (SCN1A HET). The assay can be described thus: Chronic CPA treatment (P11-P20), hyperthermia-induced seizures in vivo. Details: species or system mouse. The method, then:
as §4
The A1R agonist CPA has an acute effect on the control of hyperexcitable neural network, hyperthermia-induced seizure in vitro and in vivo. To investigate if the chronic treatment of mSMEI with CPA can have long-term effects on the rewiring of the neural circuit and FS threshold activity, CPA was injected into the SMEI mice twice a day for continuous 10 days during the critical activity-dependent period of development (P11-P20), and the effects were determined 24 hours and 10 days after the last injection.

Assay [6] relates to CA1 pyramidal cells of HET SMEI mice. The assay can be described thus: sEPSC and sIPSC whole-cell recordings after repeated CPA treatment. The settings on record: repeated CPA treatment P11-P20, HET+CPA vs HET+vehicle. It counts as in vivo, mouse. The method, then: For electrical whole-cell voltage-clamp recordings, borosilicate glass micropipettes (4-7 MΩ) were used containing (in mM): 116 Cesium gluconate, 6 KCl, 0.5 EGTA, 20 HEPES, 10 phosphocreatine, 0.3 NaGTP, 2 NaCl, 4 MgATP, and 0.3% Neurobiotin (pH 7.25, 295 mOsm) and 5 mM QX-314 (fast voltage-gated conductance blocker). Spontaneous inhibitory postsynaptic currents (IPSCs) and EPSCs were recorded in CA1 pyramidal cells. sIPSCs were recorded at −80 mV in the presence of APV (100 μM) and CNQX (40 μM). sEPSCs were recorded at −70 mV in the presence of inhibitory synaptic transmission blocker picrotoxin (50 μM). Amplitude and frequency of sEPSCs and sIPSCs were measured and compared between WT and HET. For IPSC calculations, activity was studied in three 20 second segments (twenty seconds apart) for each cell (N=8 HET, 6WT). Since EPSCs have lower frequency, two minute long segments were used for their analysis (N=6). Cumulative distribution of the amplitudes and inter-event interval (frequency) were plotted in Prism software. t-test analysis was used to compare IPSCs and EPSCs in HET and WT tissue. All recordings were performed at 32° C. temperature. […]

The mark [7] stands for this setting: 50 nM CPA, listed as N6-cyclopentyladenosine.

Entries after “also recorded” stand apart in the source; their conditions may differ. Some results are limits rather than exact numbers.

Consider `CCCn1c(=O)c2[nH]c(C3CCCC3)nc2n(CCC)c1=O` [DPCPX], for which the “effect of DPCPX on the CPA-induced decrease of fEPSP amplitude” value in assay [1] (DPCPX 200 nM added to ACSF with 50 nM CPA) is “prevented N6-cyclopentyladenosine to decrease fEPSP amplitude; also recorded: N6-cyclopentyladenosine was ineffective at reducing fEPSP”.
Take `NC(=O)N1c2ccccc2C=Cc2ccccc21` [carbamazepine]: the “efficacy against SMEI seizures” value in the assay on SMEI seizures is recorded as “none of these agents worked reliably”.
For the compound `OC[C@H]1O[C@@H](n2cnc3c(NC4CCCC4)ncnc32)[C@H](O)[C@@H]1O` [CPA, N6-cyclopentyladenosine], the entries for the “population spike evoked by very low stimulation intensity” value in assay [1] (50 nM CPA) and in assay [1] (setting [7]) were “reduced this spike into a field EPSP response” and “reduced this spike into a fEPSP response; also recorded: effectively reduced this exaggerated response into fEPSP”, respectively. The “fEPSP amplitude / synaptic excitability in HET tissue” value is recorded as “significantly reduced fEPSP; also recorded: significantly reduced hippocampal circuit hyperexcitability without blocking excitatory synaptic transmission” in assay [1] (50 nM CPA) and “significantly reduced fEPSP trains; also recorded: significantly reducing synaptic excitability in HET tissues, without blocking synaptic transmission” in assay [1] (setting [7]). Further, in assay [1] (50 nM CPA, HET vs HET+CPA, 40 Hz train), the “short-term plasticity (STP), fEPSP amplitude ratios pulses #2-10 to #1” value was “effected the short-term plasticity; also recorded: all statistically different”. The fEPSPs result in assay [1] (1 μM N6-cyclopentyladenosine in bath ACSF) and in assay [1] (10 μM N6-cyclopentyladenosine in bath ACSF) was “completely eliminated fEPSPs” each time. Moreover, the “time until N6-cyclopentyladenosine took effect after its application” value in assay [1] (bath application in ACSF) was not above 2 min. Moreover, the “abnormally wide circuit excitation, neural activity map (dF/Fmax)” value in assay [2] was “reduced significantly; also recorded: reduced the abnormally wide circuit excitation”; in assay [2] (listed as N6-cyclopentyladenosine), “abnormally wide CA1 circuit activation was confined; also recorded: reduced the abnormally wide circuit excitation”. The “spatial extent of neural signal propagation” value in assay [2] (40 Hz train) is “significantly reduced the spatial extent of neural signal propagation”; in assay [2] (40 Hz train, listed as N6-cyclopentyladenosine), “significantly reduced the spatial extent of neural signal propagation; also recorded: reduced propagation of the evoked signal”. Moreover, the “FWHM, spread of the evoked activity” value in assay [2] (HET slices + 50 nM CPA, 40 Hz train, untreated HET 591±106 μm, N=6 slices) is 491±106 μm. Also, in assay [3], the “epileptogenic activity (repeated FSLEs) in hyperthermia” value is “blocked epileptogenic activity in hyperthermia; also recorded: no repetitive FSLEs formed”. Moreover, the seizure duration with SMEI mice (SCN1A HET) [4] (acute CPA 15 minutes before hyperthermia, vehicle 5.91±1.17 min) is 2.26 ± 0.43 min; in the assay with SMEI mice (SCN1A HET) [4] (acute CPA i.p. 15 minutes prior, HET+saline 5.91±1.17 (figure legend)), 2.26±0.43; in the assay on SMEI mice (SCN1A HET) [5] (chronic CPA, 24 hours after the last treatment, vehicle 3.980±0.6651), 1.424±0.6904. For the same compound, the seizure latency with SMEI mice (SCN1A HET) [4] (acute CPA 15 minutes before hyperthermia, vehicle 8.19±0.95 min) was 11.68 ± 0.70 min; in the assay on SMEI mice (SCN1A HET) [4] (acute CPA i.p. 15 minutes prior, HET+saline 8.19±0.95 (figure legend)), 11.68±0.70; in the assay on SMEI mice (SCN1A HET) [5] (chronic CPA, 24 hours after the last treatment, vehicle 8.080±1.772), 11.25±1.140. Also, the seizure incidence is given as 53% with SMEI mice (SCN1A HET) [5] (chronic CPA twice a day P11-P20, 24 hours after the last treatment, vehicle 83.3%) and 43% in the assay with SMEI mice (SCN1A HET) [5] (chronic CPA twice a day P11-P20, 10 days after the last treatment, vehicle 75%). For the same compound, the sIPSC amplitude result in assay [6] is recorded as “does not cause significant change in sIPSCs; also recorded: no significant difference”. In assay [6], the sIPSC interval result is given as “does not cause significant change in sIPSCs; also recorded: no significant difference”.
`Nc1nnc(-c2cccc(Cl)c2Cl)c(N)n1` [lamotrigine]: the “efficacy against SMEI seizures” value in the assay with SMEI seizures is “none of these agents worked reliably”.
